The test system of series [1] is Plasmodium falciparum. The experiment in a line: Antimalarial activity against blood stage Plasmodium falciparum 3D7 assessed as reduction in parasite growth incubated for 72 hrs by SYBR Green dye based fluorescence assay. It counts as functional, organism-based. The following applies: for EC50: 3D7, 72 h.
The subject of series [2] is HepG2. The experiment in a line: Cytotoxicity against human HepG2 cells assessed as reduction in cell viability by CellTiter-Glo assay. In kind it is toxicity, cell-based.
The subject of series [3] is Plasmodium berghei. The experiment in a line: Antimalarial activity against liver stage Plasmodium berghei ANKA sporozoites in human HepG2 cells assessed as reduction in parasite load measured after 44 hrs by […] reagent based […] analysis. In kind it is functional, organism-based.
The test system of series [4] is HepG2. Description: Cytotoxicity against human HepG2 cells infected with liver stage Plasmodium berghei ANKA sporozoites assessed as reduction in cell viability measured after 44 hrs by […] assay. In kind it is toxicity, cell-based. The settings on record: hepg2, 44 h.
Series [5] can be described thus: Kinetic solubility of the compound at pH 7.4. The following applies: buffer, read-out: Kinetic_solubility. It counts as physicochemical.
Series [6] in a line: Apparent permeability of compound by PAMPA assay. It counts as ADME. (In general: In PAMPA a lipid-coated filter parts donor from acceptor wells.)
Series [7] in a line: Microsomal stability in human liver microsomes assessed as parent compound remaining at 5 uM measured after 30 mins in presence of NADPH. It counts as ADME, Microsome. The settings on record: 0.5 h. A general note: Microsomes from liver hold many membrane-bound enzymes, among them those of drug oxidation.
The nature of series [8]: Microsomal stability in mouse liver microsomes assessed as parent compound remaining at 5 uM measured after 30 mins in presence of NADPH. In kind it is ADME, Microsome. The settings on record: 0.5 h.
Series [9] relates to Plasmodium falciparum. The experiment in a line: Inhibition of plasmodium falciparum ARK1 assessed as remaining activity at 1 uM incubated for 2 hrs by luciferin-based luminescence assay relative to control.
Series [10] deals with Plasmodium falciparum. Description: Inhibition of plasmodium falciparum CDPK5 assessed as remaining activity at 1 uM incubated for 2 hrs by luciferin-based luminescence assay relative to control.
Series [11] concerns the target T1, Glycogen synthase kinase 3 (Plasmodium falciparum (isolate 3D7)) (UniProt O77344).
T1 sequence (whole entry): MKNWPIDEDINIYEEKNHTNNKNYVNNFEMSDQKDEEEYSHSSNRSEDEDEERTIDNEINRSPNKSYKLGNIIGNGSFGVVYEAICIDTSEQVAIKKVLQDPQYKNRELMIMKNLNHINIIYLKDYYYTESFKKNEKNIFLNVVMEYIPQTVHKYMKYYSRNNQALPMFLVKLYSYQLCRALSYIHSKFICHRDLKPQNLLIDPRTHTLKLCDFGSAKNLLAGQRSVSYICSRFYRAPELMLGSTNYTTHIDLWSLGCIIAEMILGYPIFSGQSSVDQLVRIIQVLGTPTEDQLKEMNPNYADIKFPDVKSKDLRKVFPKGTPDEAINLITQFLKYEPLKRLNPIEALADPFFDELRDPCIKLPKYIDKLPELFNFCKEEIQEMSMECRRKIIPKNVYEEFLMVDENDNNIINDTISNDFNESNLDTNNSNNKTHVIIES
The experiment in a line: Inhibition of plasmodium falciparum GSK3 assessed as remaining activity at 1 uM incubated for 2 hrs by luciferin-based luminescence assay relative to control.

For series [12], the system named is Plasmodium falciparum. Description: Inhibition of plasmodium falciparum NEK1 assessed as remaining activity at 1 uM incubated for 2 hrs by luciferin-based luminescence assay relative to control.
The test system of series [13] is Plasmodium falciparum. The experiment in a line: Inhibition of plasmodium falciparum NEK3 assessed as remaining activity at 1 uM incubated for 2 hrs by luciferin-based luminescence assay relative to control.
Series [14] concerns Plasmodium falciparum. The experiment in a line: Inhibition of plasmodium falciparum PK5 assessed as remaining activity at 1 uM incubated for 2 hrs by luciferin-based luminescence assay relative to control.
Series [15] concerns Plasmodium falciparum. Description: Inhibition of plasmodium falciparum PKB assessed as remaining activity at 1 uM incubated for 2 hrs by luciferin-based luminescence assay relative to control.
For series [16], the system named is Plasmodium falciparum. Description: Inhibition of plasmodium falciparum CDPK2 assessed as remaining activity at 1 uM incubated for 2 hrs by luciferin-based luminescence assay relative to control.
Series [17] deals with T2, Cdk-related protein kinase 6 (Plasmodium falciparum) (UniProt O77239).
T2 sequence (whole entry): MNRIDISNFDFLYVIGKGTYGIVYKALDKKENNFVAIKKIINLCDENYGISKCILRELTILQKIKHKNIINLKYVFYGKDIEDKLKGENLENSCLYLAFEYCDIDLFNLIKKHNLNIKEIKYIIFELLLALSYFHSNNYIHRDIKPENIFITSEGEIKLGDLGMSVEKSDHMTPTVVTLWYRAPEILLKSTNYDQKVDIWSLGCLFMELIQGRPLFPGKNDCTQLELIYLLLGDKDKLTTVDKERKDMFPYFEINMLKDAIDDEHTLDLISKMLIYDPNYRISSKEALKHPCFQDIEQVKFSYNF
Description: Inhibition of plasmodium falciparum PK6 assessed as remaining activity at 1 uM incubated for 2 hrs by luciferin-based luminescence assay relative to control.

The subject of series [18] is Plasmodium falciparum. Description: Inhibition of plasmodium falciparum ARK3 assessed as remaining activity at 1 uM incubated for 2 hrs by luciferin-based luminescence assay relative to control.
Series [19] has as its system Plasmodium falciparum. Description: Inhibition of plasmodium falciparum PK9 assessed as remaining activity at 1 uM incubated for 2 hrs by luciferin-based luminescence assay relative to control.
Series [20] deals with Calcium-dependent protein kinase 1 (Plasmodium falciparum) (UniProt P62344). Description: Inhibition of plasmodium falciparum CDPK1 assessed as remaining activity at 1 uM by Kinomescan method relative to control. The following applies: time 2.0 hrs.
The test system of series [21] is Plasmodium falciparum. The experiment in a line: Inhibition of plasmodium falciparum PK5 assessed as remaining activity at 1 uM by Kinomescan method relative to control.
The target in series [22] is T3, Cdk-related protein kinase 6 (Plasmodium falciparum, UniProt O77239).
T3 sequence (O77239 whole entry): T2 sequence (whole entry)
Description: Inhibition of N-terminal 6His-tagged plasmodium falciparum PK6 expressed in Escherichia coli BL21(DE3) incubated for 15 mins in presence of [gamma-32p]ATP and ATP by SDS-PAGE based autoradiography analysis

Converted amounts (≈) assume the structure as drawn. The source made the active and inactive calls. The calls are words filed in the database; no cut-off is given here. Where only a bound is given, the exact number is not on record here.

Sequence of Calcium-dependent protein kinase 1 (Plasmodium falciparum) (P62344 2-524 limits assumed): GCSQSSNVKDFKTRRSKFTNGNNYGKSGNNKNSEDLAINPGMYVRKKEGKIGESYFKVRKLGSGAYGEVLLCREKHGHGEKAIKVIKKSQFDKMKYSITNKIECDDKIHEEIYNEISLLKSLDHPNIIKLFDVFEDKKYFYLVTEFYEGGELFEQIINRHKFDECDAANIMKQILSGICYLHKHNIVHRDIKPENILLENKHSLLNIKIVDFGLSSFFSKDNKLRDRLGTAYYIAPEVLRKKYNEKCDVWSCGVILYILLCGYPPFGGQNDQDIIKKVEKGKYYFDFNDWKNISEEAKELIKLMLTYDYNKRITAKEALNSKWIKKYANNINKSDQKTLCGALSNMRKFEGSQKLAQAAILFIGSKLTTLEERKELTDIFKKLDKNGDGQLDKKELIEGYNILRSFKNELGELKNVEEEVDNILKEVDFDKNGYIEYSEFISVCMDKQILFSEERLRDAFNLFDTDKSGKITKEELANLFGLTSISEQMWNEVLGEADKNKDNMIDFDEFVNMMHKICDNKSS

`COc1cc2nccc(Oc3ccc(NC(=O)Nc4ccc(C=C5CCNCC5)cc4)c(F)c3)c2cc1OC`: the EC50 (usually the concentration at which the effect is half-maximal) in [1] came out at 0.14 µM. Further, the values for the CC50 in series [2] and in series [4] were 2.57 µM and 6.62 µM, respectively. In addition, the result in series [3] was inactive. Moreover, in series [5], the solubility kinetic turned out to be 7.4 µM (≈ 3.91 µg/mL). Also, the Papp in [6] is < 0.709 10^-6 cm/s. The Stability in series [7] was 88.6%; in series [8], 86.7%. Besides, the Activity in series [9] turned out to be 98%; in series [10], 98%; in series [11], 100%; in [12] it was 100%; in series [13], 84%; in series [14] it was 100%. Also, the Activity came out at 38% in series [15] and 96% in series [16].

For the compound `COc1cc2nccc(Oc3ccc(NC(=O)Nc4ccccc4)c(F)c3)c2cc1OC`, the Activity in [17] came to 1%.

Consider `O=C(Nc1ccc(F)cc1F)Nc1ccc(Oc2ncnc3sccc23)cc1F`, for which, in [17], the Activity amounted to 80%.

`O=C(Nc1ccc(F)cc1F)Nc1ccc(Oc2ccnc3[nH]ccc23)cc1F`: in [17], the Activity came out at 14%.

Regarding `COc1cc2nccc(Oc3ccc(NC(=O)Nc4ccccc4)cc3)c2cc1OC`, the Activity in series [17] is 4%.

Turning to `O=C(Nc1ccc(F)cc1F)Nc1ccc(Oc2ccnc3ccccc23)cc1F`, the Activity in series [17] is 40%.

For `COc1cc2nccc(Oc3ccc(N)c(F)c3)c2cc1OC`, the Activity in series [17] worked out at 100%.

As to `O=C(Nc1ccc(F)cc1F)Nc1ccc(Oc2ccnc(Cl)c2)cc1F`, in [17], the Activity came to 92%.

With `O=C(Nc1ccc(F)cc1F)Nc1ccc(Oc2ccnc3cc4c(cc23)OCCO4)cc1F`, in series [17], the Activity worked out at 30%.

Consider `O=C(Nc1ccc(O)cc1F)Nc1ccc(F)cc1F`, for which the Activity in series [17] is 100%.

With `COc1cc2nccc(Oc3ccc(NC(=O)Nc4ccc(F)cc4F)cc3)c2cc1OC`, the Activity in series [17] turned out to be 6%.

`O=C(Nc1ccc(F)cc1F)Nc1ccc(Oc2ccnc3cc(Cl)ccc23)cc1F`: the Activity in [17] came out at 38%.

In the case of `COc1cc2nccc(Oc3ccc(NC(=O)Nc4ccc(CC5CCNCC5)c(C(F)(F)F)c4)c(F)c3)c2cc1OC`, the EC50 was found to be 0.039 µM in series [1] and 0.22 µM in series [3] (HepG2, 44 h). In addition, the CC50 in series [2] and in series [4] was 1.29 µM each time. Moreover, the solubility kinetic in series [5] was found to be 2.1 µM (≈ 1.26 µg/mL). Moreover, in series [6], the Papp was 0.734 10^-6 cm/s. In series [7], the Stability was 98.1%. Further, the Activity in series [9] amounted to 100%; in series [18], 87%; in [10], 27%; in series [11], 34%; in [12], 100%; in [13] it was 7%. Moreover, the Activity amounted to 94% in series [14]; 89% in series [19]; 21% in [15]; 1.1% in series [20]; 80% in series [21]; 64% in series [16].

For `COc1cc2nccc(Oc3ccc(NC(=O)Nc4ccccc4F)c(F)c3)c2cc1OC`, the Activity in series [17] was 1%.

For `COCCOc1cc2nccc(Oc3ccc(NC(=O)Nc4ccc(F)cc4F)c(F)c3)c2cc1OCCOC`, the Activity in series [17] amounted to 2%.

Turning to `O=C(Nc1ccc(F)cc1F)Nc1ccc(Oc2ccnc3ccsc23)cc1F`, in series [17], the Activity was determined as 34%.

Turning to `O=C(Nc1ccc(F)cc1F)Nc1ccc(Oc2ccnc3sccc23)cc1F`, in series [17], the Activity was found to be 43%.

Regarding `Cn1cnc2c(NCc3ccccc3)nc(NCCO)nc21` [OLOMOUCINE], inhibition in series [22] was half-maximal at 180 µM (IC50).

As for `O=C(Nc1ccc(F)cc1F)Nc1ccc(Oc2ccncn2)cc1F`, the Activity in series [17] was determined as 84%.

As to `O=C(Nc1ccc(F)cc1F)Nc1ccc(Oc2ccnc(Cl)n2)cc1F`, the Activity in [17] is 98%.

In the case of `COc1cc2nccc(Oc3cccc(F)c3)c2cc1OC`, in [17], the Activity was found to be 84%.

As for `COc1cc2nccc(Oc3ccc(NC(=O)Nc4ccc(CN5CCN(C)CC5)c(C(F)(F)F)c4)c(F)c3)c2cc1OC`, the EC50 in [1] was determined as 0.11 µM. Further, in [2], the CC50 – broadly, the concentration that lowers cell viability or growth by half – was 1 µM. Moreover, the solubility kinetic in series [5] turned out to be 2.1 µM (≈ 1.29 µg/mL). Besides, the Papp in [6] is listed as 2.57 10^-6 cm/s. In addition, in series [20], the Activity came out at 1.6%.

As to `COc1cc2nccc(Oc3ccc(NC(=O)Nc4ccc(CC5CCNCC5)cc4)c(F)c3)c2cc1OC`, the concentration giving a half-maximal response (EC50) in series [1] was determined as 0.16 µM. The CC50 in series [2] came out at 4.39 µM; in series [4], 3.29 µM. In [3], the outcome was inactive. Moreover, in [5], the solubility kinetic turned out to be 10.9 µM (≈ 5.78 µg/mL). In addition, in series [6], the Papp is given as < 0.669 10^-6 cm/s. For the same compound, in series [8], the Stability turned out to be 85.8%. Also, the Activity in series [9] is 97%; in series [10] it was 91%; in series [11], 97%; in series [12], 100%; in series [13] it was 82%; in series [14] it was 97%. The Activity in series [19] was found to be 99%; in series [15], 30%; in series [20] it was 51%; in [21], 84%; in [16], 88%.

Regarding `COc1cc2nccc(Oc3ccc(NC(=O)Nc4ccc(F)cc4F)c(F)c3)c2cc1OC`, in series [1], the outcome was inactive. The solubility kinetic in series [5] amounted to 0.7 µM (≈ 0.329 µg/mL).

Regarding `COc1cc2nccc(Oc3ccc(NC(=O)Nc4ccc(F)cc4)c(F)c3)c2cc1OC`, the Activity in [17] is 1%.

Turning to `N#Cc1cnc2ccccc2c1Oc1ccc(NC(=O)Nc2ccc(F)cc2F)c(F)c1`, the Activity in series [17] turned out to be 86%.

In the case of `COc1cc2nccc(Oc3ccc(NC(=O)Nc4ccc(OC5CCN(C)CC5)c(C(F)(F)F)c4)c(F)c3)c2cc1OC`, the EC50 in series [1] stood at 0.04 µM. The CC50 in series [2] was determined as 1 µM; in series [4], 0.41 µM. The outcome in series [3] was inactive. Further, in series [5], the solubility kinetic stood at 1.5 µM (≈ 0.922 µg/mL). In addition, in [6], the Papp is reported as < 0.513 10^-6 cm/s. Further, the Stability in series [7] was found to be 88.6%; in series [8], 69.7%. Besides, the Activity worked out at 94% in [9]; 97% in [18]; 25% in [10]; 30% in series [11]; 100% in series [12]; 6% in series [13]. Further, the Activity in [14] was determined as 94%; in [19], 79%; in series [15] it was 20%; in series [16], 78%.

Consider `O=C(Nc1ccc(F)cc1F)Nc1ccc(Oc2ccnc3cc4c(cc23)OCO4)cc1F`, for which the Activity in [17] worked out at 28%.

Consider `O=C(Nc1ccc(F)cc1F)Nc1ccc(Oc2cc(NCc3ccccc3)ncn2)cc1F`, for which, in series [17], the Activity stood at 60%.

On to `COc1cc2nccc(Oc3ccc(N)cc3)c2cc1OC`, for which the Activity in [17] came to 95%.

As to `COc1cc2nccc(Oc3ccc(NC(C)=O)c(F)c3)c2cc1OC`, in series [17], the Activity is 26%.
